Measured values from patent US10654917B2, “Antibody molecules and peptide delivery systems for use in alzheimer's disease and related disorders” (TECHNOPHAGE, INVESTIGAÇĀO E DESENVOLVIMENTO EM …, priority 2015, dated 2020).
Like-named read-outs stand apart in the source and are kept apart here.

Assays:
[1] = Partition coefficient (log Po/w) of radiopeptides; type: physicochemical
Text: Table 7 lists each peptide's name, isoelectric point (PI), charge (number of positive residues), calculated mass (in Da), and ion found; as well as the name, calculated mass, and found ion for the corresponding conjugate; and also retention times in HPLC and the partition coefficient (log Po/w). These values allowed the determination of the hydrophilic nature of peptides, where pepH1 and pepH4 were identified as the most hydrophilic peptides.

[2] = Biodistribution of technetium-labelled peptides; type: in vivo, CD1 mice; details: iv, 80 ug/mouse, total radioactivity, 80 μg/mouse
Method: To evaluate the capacity to cross the BBB in vivo, the selected peptides, pepH1 and pepH3, were analyzed for biodistribution in CD1 mice. The peptides were labelled with technetium at a final concentration of 8.5×10^−5 M and diluted in PBS. CD1 mice were injected (iv injection, tail vein). The mice were sacrificed by cervical dislocation after 5 and 60 minutes of incubation. The tissues of interest were dissected and washed to remove excess blood, weighed, and measured for radioactivity. Technetium radioactivity of the different peptides was measured for different organs.
Initial results are presented in Table 11, where “% I.A. refers to the “% injected activity”, that is, the amount of radioactivity measured in a given organ compared to the total originally injected.
The biodistribution studies were repeated, using higher doses of each peptide, specifically, a one hundred fold increase, as well as using PepH2 as a negative control, and allowing incubation for 2 minutes and 60 minutes. Tissue biodistribution profile in percentage of injected radiopeptide activity per gram of tissue/organ was measured and results are presented in Table 12.

## CSCC[C@H](NC(=O)[C@H](Cc1ccccc1)NC(=O)[C@H](CC(C)C)NC(=O)[C@H](CCCCN)NC(=O)CCCN(CCN)CCn1nc(C)c(CC(=O)O)c1C)C(=O)N[C@@H](C)C(=O)N[C@@H](CC(C)C)C(=O)N[C@H](C(=O)N[C@@H](C)C(=O)N[C@@H](Cc1ccccc1)C(=O)N[C@@H](CC(C)C)C(=O)N[C@@H](CCCNC(=N)N)C(=O)N[C@@H](Cc1ccccc1)C(=O)N[C@@H](CC(C)C)C(=O)N[C@H](C(=O)O)[C@@H](C)O)C(C)C [^99mTc(CO)3-Pz^1-pepH2, metal not drawn]
[1]
  log Po/w of radiopeptides: 0.65 ± 0.13
[2]; CD1, blood, read-out: injected activity in Blood
  tissue uptake at 2 min: 8.9 ± 0.6 %ID/g
[2]; CD1, blood, 1 hour, read-out: injected activity in Blood
  tissue uptake at 1 h: 3.8 ± 0.2 %ID/g
[2]; CD1, bone, read-out: injected activity in Bone
  tissue uptake at 2 min: 1.6 ± 0.1 %ID/g
[2]; CD1, bone, 1 hour, read-out: injected activity in Bone
  tissue uptake at 1 h: 1.4 ± 0.1 %ID/g
[2]; CD1, brain, read-out: injected activity in Brain
  tissue uptake at 2 min: 0.37 ± 0.04 %ID/g
[2]; CD1, brain, 1 hour, read-out: injected activity in Brain
  tissue uptake at 1 h: 0.2 ± 0.1 %ID/g
[2]; CD1, heart, read-out: injected activity in Heart
  tissue uptake at 2 min: 3.45 ± 0.02 %ID/g
[2]; CD1, heart, 1 hour, read-out: injected activity in Heart
  tissue uptake at 1 h: 1.2 ± 0.2 %ID/g
[2]; CD1, in vivo, 1 hour, read-out: Excretion
  dose excreted at 1 h: 12.7 ± 4.2%
[2]; CD1, intestine, read-out: injected activity in Intestine
  tissue uptake at 2 min: 0.5 ± 0.1 %ID/g
[2]; CD1, intestine, 1 hour, read-out: injected activity in Intestine
  tissue uptake at 1 h: 1.64 ± 0.07 %ID/g
[2]; CD1, kidney, read-out: injected activity in Kidney
  tissue uptake at 2 min: 5 ± 1.5 %ID/g
[2]; CD1, kidney, 1 hour, read-out: injected activity in Kidney
  tissue uptake at 1 h: 3.3 ± 0.8 %ID/g
[2]; CD1, liver, read-out: injected activity in Liver
  tissue uptake at 2 min: 16.7 ± 1.1 %ID/g
[2]; CD1, liver, 1 hour, read-out: injected activity in Liver
  tissue uptake at 1 h: 21.7 ± 0.9 %ID/g
[2]; CD1, lung, read-out: injected activity in Lung
  tissue uptake at 2 min: 126 ± 20 %ID/g
[2]; CD1, lung, 1 hour, read-out: injected activity in Lung
  tissue uptake at 1 h: 51.4 ± 4.4 %ID/g
[2]; CD1, muscle, read-out: injected activity in Muscle
  tissue uptake at 2 min: 0.61 ± 0.09 %ID/g
[2]; CD1, muscle, 1 hour, read-out: injected activity in Muscle
  tissue uptake at 1 h: 0.43 ± 0.03 %ID/g
[2]; CD1, spleen, read-out: injected activity in Spleen
  tissue uptake at 2 min: 13.6 ± 0.3 %ID/g
[2]; CD1, spleen, 1 hour, read-out: injected activity in Spleen
  tissue uptake at 1 h: 10.6 ± 0.4 %ID/g
[2]; CD1, stomach, read-out: injected activity in Stomach
  tissue uptake at 2 min: 2 ± 0.6 %ID/g
[2]; CD1, stomach, 1 hour, read-out: injected activity in Stomach
  tissue uptake at 1 h: 9.4 ± 0.2 %ID/g
